Data reported in publication PMC12647759 (Scientific Reports, 2025).

Columns and labels:
SW620 cells = assay: Experimental lung metastasis of SW620 cells in nude mice; type: in vivo; conditions: i.p. twice, one week before and after cell injection, ZPT 2.5 or 5 mg/kg, dipyrithione 5 mg/kg
Procedure: Female nude mice (6–8 weeks old) were injected with SW620 cells (1 × 10^7 cells) suspended in 200 µl L-15 medium via tail vein and maintained for further 8 weeks. ZPT, dipyrithione or the vehicle was administered intraperitoneally to the mice twice, 1 week before and after the cell injection. Thereafter, the mice were sacrificed, and their lungs were excised, fixed in 4% PFA, embedded in paraffin and serially sectioned. The Sect. (10-µm thick) were subjected to H&E staining. For histologic evaluation of lung micro-metastasis, the number of micro-metastatic nodules in 3 non-contiguous lung sections from each mouse was counted under a light microscope as described previously.

[1] = test system: intestinal tumours of Apc^Min/+ mice; assay: Intestinal tumourigenesis of Apc^Min/+ mice; type: in vivo; conditions: i.p. 3 days per week for 11 weeks, ZPT 2.5 or 5 mg/kg, dipyrithione 5 mg/kg
Procedure: Five weeks-old Apc^Min/+ mice were administered intraperitoneally with ZPT, dipyrithione or the vehicle 3 days per week for 11 weeks. Thereafter, the mice were sacrificed and the whole small intestines were excised, rolled up in a ‘Swiss roll’ configuration, embedded in OCT compound and longitudinally sectioned at the 10-µm thickness. One section in the middle position of each intestine was subjected to H&E staining after fixation with 4% PFA, and tumours in the whole section were classified under microscope into hyperplasias, low-grade adenomas, high-grade adenomas and adenocarcinomas according to the histopathological criteria recommended for the study of mouse models of intestinal cancer. The classification was conducted by a pathologist at Pathology Analysis Center (Kanagawa, Japan) under the blind condition regarding the compound administration.

[2] = test system: DSS-induced inflammatory colitis; assay: DSS-induced inflammatory colitis; type: in vivo, mice; conditions: 2.5% DSS 7 days; i.p. once a day, ZPT 2.5, 5 or 10 mg/kg, dipyrithione 10 mg/kg
Procedure: To induce inflammatory colitis, 10 weeks-old C57BL/6JJc1 mice were allowed to take drinking water containing 2.5% (w/v) DSS (molecular weight 36,000 ~ 50,000; Wako Pure Chemical, Osaka, Japan) ad libitum for 7 days[9],[30]. During this period, they were administered intraperitoneally with ZPT, dipyrithione or a vehicle (0.5% carboxymethyl cellulose and 0.9% NaCl) once a day. Thereafter, their colons were excised, washed with PBS, dissected longitudinally, fixed in 4% paraformaldehyde (PFA), embedded in paraffin and serially sectioned as described. The Sect. (10-µm thick) were subjected to H&E staining. Images were taken with an Olympus FSX100 microscope and Olympus FSX100-BSW software. The severity of inflammatory colitis was also assessed by measuring the body weight loss and the colon length shortening.

SW480 cells = assay: Tumour xenograft of SW480 cells in nude mice; type: in vivo; conditions: i.p. 3 days per week for 3 weeks, ZPT 2.5, 5 or 10 mg/kg, dipyrithione 5 mg/kg
Procedure: (§1) Tumour xenograft experiments were performed as previously described. Briefly, SW480 or Caco2 cells (5 × 10^6 cells each) were implanted subcutaneously into the right flanks of female athymic nude (nu/nu) mice (6–8 weeks old, CLEA Japan). One week later, the mice were administered intraperitoneally with ZPT, dipyrithione or the vehicle 3 days per week for 3 or 8 weeks, respectively, during which the volumes (V) of the tumours, calculated by the following formula: V = A × B^2/2 (A: the largest diameter, B: the perpendicular diameter), and the body weight were monitored every 7 days. Thereafter, tumours of the SW480-grafted mice were dissected, weighed, fixed in 4% paraformaldehyde, embedded in paraffin and serially sectioned. The Sect. (10-µm thick) were subjected to immunohistochemical detection of phosphorylated PKD by using anti-phospho-PKD antibody and HISTMOUSE-PLUS Kit (ZYMED Lab., Carlsbad, CA) according to the manufacturer’s protocol.

human PLCε = molecular target: T1, human PLCε (Homo sapiens, UniProt Q9P212); assay: In vitro PLC assay using fluorogenic substrate Compound 1 (HTS), PLCε; type: biochemical; conditions: Compound 1 as substrate, varying concentrations
T1 construct: expressing the full-length polypeptides of human PLCε, PLCβ4, PLCδ1 and PLCγ1 as FLAG fusions; made in house; host or cells: Expi293F cells
T1 sequence (Q9P212 whole entry, the tested form may be a part): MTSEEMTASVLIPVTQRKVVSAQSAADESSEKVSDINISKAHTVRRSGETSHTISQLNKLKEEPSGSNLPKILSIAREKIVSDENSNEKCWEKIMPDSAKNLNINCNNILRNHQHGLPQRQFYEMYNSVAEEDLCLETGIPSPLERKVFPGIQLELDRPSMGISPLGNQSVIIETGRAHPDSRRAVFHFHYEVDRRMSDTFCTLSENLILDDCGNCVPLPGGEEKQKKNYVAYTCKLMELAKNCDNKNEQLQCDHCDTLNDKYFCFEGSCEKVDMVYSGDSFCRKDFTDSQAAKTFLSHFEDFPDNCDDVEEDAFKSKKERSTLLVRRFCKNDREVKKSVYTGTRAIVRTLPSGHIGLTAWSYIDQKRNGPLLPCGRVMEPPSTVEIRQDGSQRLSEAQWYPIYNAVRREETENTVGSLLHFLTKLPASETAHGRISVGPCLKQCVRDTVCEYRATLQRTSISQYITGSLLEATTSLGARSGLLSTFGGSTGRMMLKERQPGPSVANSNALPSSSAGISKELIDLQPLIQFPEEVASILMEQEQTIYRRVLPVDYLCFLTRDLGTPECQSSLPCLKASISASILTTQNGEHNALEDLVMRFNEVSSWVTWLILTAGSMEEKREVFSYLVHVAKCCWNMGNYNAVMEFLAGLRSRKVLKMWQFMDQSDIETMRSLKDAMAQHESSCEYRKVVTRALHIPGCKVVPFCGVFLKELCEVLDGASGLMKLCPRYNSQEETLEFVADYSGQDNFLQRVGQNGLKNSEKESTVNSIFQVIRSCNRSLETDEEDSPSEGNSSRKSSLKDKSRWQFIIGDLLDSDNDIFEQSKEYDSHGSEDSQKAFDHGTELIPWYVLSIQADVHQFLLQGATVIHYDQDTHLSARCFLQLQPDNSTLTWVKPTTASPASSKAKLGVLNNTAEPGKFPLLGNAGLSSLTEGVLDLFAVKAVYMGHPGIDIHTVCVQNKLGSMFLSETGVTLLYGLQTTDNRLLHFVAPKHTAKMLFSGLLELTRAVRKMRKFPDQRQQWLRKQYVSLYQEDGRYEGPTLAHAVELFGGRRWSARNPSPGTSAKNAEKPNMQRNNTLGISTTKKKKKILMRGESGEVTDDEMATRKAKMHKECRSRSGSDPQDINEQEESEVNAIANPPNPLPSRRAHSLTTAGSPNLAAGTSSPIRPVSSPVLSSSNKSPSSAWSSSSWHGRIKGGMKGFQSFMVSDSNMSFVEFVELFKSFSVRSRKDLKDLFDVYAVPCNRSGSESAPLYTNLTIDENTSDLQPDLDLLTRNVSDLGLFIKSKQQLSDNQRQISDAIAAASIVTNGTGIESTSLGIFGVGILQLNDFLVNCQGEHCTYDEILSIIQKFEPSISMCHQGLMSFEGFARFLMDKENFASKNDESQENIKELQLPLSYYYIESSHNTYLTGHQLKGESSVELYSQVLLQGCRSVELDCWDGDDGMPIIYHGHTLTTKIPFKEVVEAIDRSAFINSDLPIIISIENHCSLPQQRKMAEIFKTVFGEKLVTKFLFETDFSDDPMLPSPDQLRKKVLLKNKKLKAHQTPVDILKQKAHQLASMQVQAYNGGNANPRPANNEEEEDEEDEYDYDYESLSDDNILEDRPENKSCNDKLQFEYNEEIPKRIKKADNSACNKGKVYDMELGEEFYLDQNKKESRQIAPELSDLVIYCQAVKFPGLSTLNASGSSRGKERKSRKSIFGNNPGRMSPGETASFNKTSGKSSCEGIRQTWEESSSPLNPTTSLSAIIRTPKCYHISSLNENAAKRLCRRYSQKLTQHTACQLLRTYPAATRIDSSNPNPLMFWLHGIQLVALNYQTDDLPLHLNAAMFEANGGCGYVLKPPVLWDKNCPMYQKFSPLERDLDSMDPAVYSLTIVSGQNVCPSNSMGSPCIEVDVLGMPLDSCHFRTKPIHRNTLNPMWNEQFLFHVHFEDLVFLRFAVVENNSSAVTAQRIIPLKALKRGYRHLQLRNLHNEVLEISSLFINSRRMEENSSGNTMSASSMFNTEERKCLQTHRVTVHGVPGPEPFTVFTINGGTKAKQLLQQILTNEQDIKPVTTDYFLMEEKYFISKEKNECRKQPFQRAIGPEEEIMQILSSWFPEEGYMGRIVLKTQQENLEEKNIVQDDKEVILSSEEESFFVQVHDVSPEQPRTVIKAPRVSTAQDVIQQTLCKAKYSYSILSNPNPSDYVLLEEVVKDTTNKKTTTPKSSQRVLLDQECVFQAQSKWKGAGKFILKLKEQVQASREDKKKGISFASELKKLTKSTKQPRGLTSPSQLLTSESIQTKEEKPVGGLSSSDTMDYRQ
Procedure: For measuring inhibition by compounds for HTS, the reactions were conducted at RIKEN Center for Sustainable Resource Science (CSRS) as described above except that 5 µl of compound solution and 5 µl of purified PLCe (120 ng) were added to each well. […] For determination of the IC50 values for ZPT and Zn^2+, the EDTA concentration was reduced to one-tenth to avoid its zinc-chelating effect. For assay of the other PLC classes, the reactions were performed similarly except that PLCβ4 (5 ng), PLCδ1 (0.1 ng) or PLCγ1 (0.3 ng) was used instead of PLCε.

Caco2 cells [3] = assay: Tumour xenograft of Caco2 cells in nude mice; type: in vivo; conditions: i.p. 3 days per week for 8 weeks, ZPT 2.5, 5 or 10 mg/kg, dipyrithione 5 mg/kg
Procedure: as §1

Caco2 cells [4] = assay: Determination of intracellular zinc concentration with Zinquin ethyl ester; type: cell-based, human; conditions: 5 µM sodium pyrithione added to 5 µM ZnSO4, 30 min
Procedure: Confluent Caco2 cells in a Φ10-cm culture dish were subjected to serum starvation overnight and incubated with 10 µM MG132 for 30 min. […] The cells were harvested by trypsinization, washed with PBS and suspended at the density of 5 × 10^6 cells/ml in Hanks’ balanced salt solution (HBSS). After the addition of 1 mg/ml Zinquin ethyl ester (Dojindo Laboratories, Kumamoto, Japan)[27] dissolved in DMSO at the final concentration of 25 µM, the cell suspension was incubated at 37 °C for 30 min. Subsequently, the cells were washed three times with HBSS, suspended in HBSS at the density of 5 × 10^6 cells/ml and subjected to measurement of the fluorescence emission at 490 nm with the excitation at 370 nm by POLARstar Omega-25.

PLC = conditions: cited from earlier work

| Compound | numbers of micro-metastatic nodules in lung sections (SW620 cells) | ratio of high-grade adenomas / progression of low-grade to high-grade adenomas [1] | body weight loss [2] | colon length shortening [2] | histology: erosion of the mucosa, swelling of the submucosa and leukocyte infiltration [2] | growth of grafted cells (tumour volume) (SW480 cells) | inhibition of PLCε (human PLCε) | growth of grafted cells (tumour volume) (Caco2 cells [3]) | increase in intracellular Zn^2+ concentration (Caco2 cells [4]) [fold] | inhibition of PLC catalytic activity in vitro (PLC) |
| --- | --- | --- | --- | --- | --- | --- | --- | --- | --- | --- |
| [O-][n+]1ccccc1SSc1cccc[n+]1[O-] [dipyrithione] | exhibited no effect | appeared to accelerate the progression of low-grade adenomas to high-grade adenomas | failed to alleviate | failed to alleviate | failed to alleviate | not | failed to inhibit PLCε | not |  |  |
| On1ccccc1=S [sodium pyrithione] |  |  |  |  |  |  | failed to inhibit PLCε |  | 8.78 |  |
| COc1ccc2c(c1)CC[C@@H]1[C@@H]2CC[C@]2(C)[C@@H](NCCCCCCN3C(=O)C=CC3=O)CC[C@@H]12 [U73122] |  |  |  |  |  |  |  |  |  | failed to inhibit PLC catalytic activity in vitro |
